# Source: paper PMC12048447, “PANTAX: a phase Ib clinical trial of the efflux pump inhibitor SCO-101 in combination with gemcitabine and nab-paclitaxel in non-resectable or metastatic pancreatic cancer” (Investigational New Drugs, 2025)
# Experiments:
# [1] = system: PANC-1-Pac cells; assay: MTT cell viability and ZIP synergy in paclitaxel-resistant PANC-1-Pac cells; type: cell-based, human; conditions: 72 h with drug + 72 h fresh media
# Text: (§1) A paclitaxel-sensitive human PDAC cell line, PANC-1, was obtained (ATCC, CRL-1469) and the derived paclitaxel-resistant PANC-1-Pac cell line was established by gradually increasing concentrations of paclitaxel over a period of 2–4 months. Standard MTT and crystal violet assays were applied to evaluate the effect of treatment with either combinations of SCO-101 and paclitaxel or SRPK1-inhibitor and paclitaxel. Details are presented in the Online Resource.
# Statistical analyses were mainly descriptive and included mean, median, range, and 95% CIs. Kaplan–Meier plots were constructed using Stata version 18 (StataCorp, 2023). In the preclinical study, the zero interaction potency (ZIP) synergy score was calculated as described by Yadav et al., to quantify the deviation from the expectation of zero interaction between drugs. A ZIP synergy score above 10 indicates synergy.
# as §1, with “line PANC-1” for “line, PANC-1,”, “2-4” for “2–4”, “SCO-101/paclitaxel” for “SCO-101 and paclitaxel”, “SRPK1 inhibitor/paclitaxel.” for “SRPK1-inhibitor and paclitaxel. Details are presented in the Online Resource.”
# The selection began at 1 nM, increased to 2 nM and 4 nM, and ended at 8 nM. For each drug concentration the cells were kept for three passages. To evaluate the effect of the treatment either a Crystal Violet assay or MTT (3-(4,5-dimethylthiazol-2-yl)-2,5-diphenyltetrazolium bromide) assay were applied.
# The MTT was conducted according to standard conditions. In short, cells were seeded at a density of 7,000 cells/well into a 96-well. One day after seeding, the cells were experimentally treated. Control conditions consisted of either growth medium (‘untreated’) or DMSO diluted in growth medium. All treatments were performed in triplicates. The cells were then kept in the CO2 incubator at 37 °C for 72 hours and plates were incubated with 100μl 1:10 MTT (0.5 mg/ml dissolved in phosphate buffered saline) for 3 hours and hereafter stopped using 100μl/well stop buffer (50g Sodium Dodecyl Sulphate, 245 mL MiliQ H2O, 5mL 1.0 N HCl was added to dissolve the formazan crystals overnight. Optical densities were measured at 570 and 670 nm.
# Experiments with 4 different concentrations of either SCO-101 or paclitaxel and their combinations were applied to test for synergy among these two compounds in both the PANC-1 parental and -Paclitaxel resistant cells. SCO-101 was applied in 10, 20, 40 and 50 µM whereas paclitaxel was tested in 5, 10, 15 and 20 nM for a total of 144 h, where drug was only present in the first 72h (sFig 2). The SRPK1 inhibitor SPHINX31 was tested at 0.1; 0.5; 1 and 5 µM. The SRPK1 inhibitor SRPIN was tested at 1; 5; 10 and 50 µM. Both inhibitors were tested in combination with 5, 10, 15 and 20 nM Paclitaxel.
# PANC-1-Pac cells treated with paclitaxel and SRPIN340 with four different concentrations of each for a total of 144 hours. Cell viability was evaluated by MTT assays and reported as percentage of untreated control (medium). Error bars indicate percentage standard deviation.
# [2] = design: method as in PMID 32628359; conditions: healthy volunteers, cited from earlier work
smiles,measurement,setting,value
O=C(Nc1cc(C(F)(F)F)cc(C(F)(F)F)c1)Nc1ccc(Br)cc1-c1nnn[nH]1 [SCO-101],"effect on PANC-1-Pac cells (cell viability), drug alone",[1],dose-dependent effect
same,ZIP synergy score with paclitaxel,"[1]; PANC-1-Pac cells, SCO-101 + paclitaxel, score above 10 indicates synergy",16.795
same,individuals who developed clinical jaundice,[2]; 150 mg dose cohort,Two
same,adverse events,[2]; single doses up to 200 mg or multiple doses up to 150 mg daily for 14 days,mild adverse events (AEs) and no serious adverse events (SAEs)
